Laboratory results taken from publication PMC12006171, “Marsupial cathelicidins: characterization, antimicrobial activity and evolution in this unique mammalian lineage” (Frontiers in Immunology, 2025).
≈ marks a conversion by molar mass, not a printed value. Where two headings read alike, the source gives them in different places. Where a SMILES comes first, the peptide text is derived from it.

Key:
Experiment in all cases: microbe, parasite or virus in culture
Type in all cases: cell-based
[1] = system: Escherichia coli ATCC 25922; settings: ATCC 25922
Experimental: (§1) Antimicrobial testing of 78 cathelicidin MPs was performed in two phases as outlined in Figure 1 . In phase I, 40 peptides (27 extant and 13 ancestral) were selected for testing based on rank (outlined above) and similarity to published marsupial cathelicidins with known antimicrobial activity ([33], [41]–[43]). These peptides were tested against nine bacteria (Staphylococcus aureus ATCC 29213 and clinical isolate, Escherichia coli ATCC 25922 and clinical isolate, Pseudomonas aeruginosa ATCC 27853 and clinical isolate, Streptococcus agalactiae ATCC 12386 and clinical isolate, Streptococcus pneumoniae ATCC 49619) and three fungi (Candida krusei ATCC 6258, Candida parapsilosis ATCC 22019, and Candida albicans clinical isolate). Details regarding these strains are available in Supplementary Table 4 . The antimicrobial activity of cathelicidins was determined as the minimum inhibitory concentration (MIC), which was the lowest concentration of cathelicidin that prevented visible bacterial or fungal growth, relative to the negative control. […] Minimum bactericidal concentration (MBC) and/or minimum fungicidal concentration (MFC) was conducted to determine microbicidal versus static action. Activity against S. aureus ATCC, E. coli ATCC, and Pseudomonas aeruginosa ATCC 27853 was examined in the presence of divalent cations to determine the impact of inhibitors.
(§2) In phase II, the remaining 38 peptides (37 extant and one ancestral) were tested against six bacteria (S. aureus ATCC and clinical isolate, E. coli ATCC and clinical isolate, and P. aeruginosa ATCC and clinical isolate). […] No further testing on phase II peptides was performed. Detailed methods for all assays are provided in subsequent sections.
(§3) Antimicrobial activity was determined using a broth microdilution susceptibility assay in 96 well polypropylene plates according to Clinical Laboratory Standards Institute guidelines M07-A and M26A as described previously ([33], [42], [43]). The bacterial and fungal isolates from humans and animals used in this study are outlined in Supplementary Table 4 . Only yeasts were included in the panel of fungi as they have been used in the susceptibility testing of eutherian ([3], [81]–[83]) and other marsupial cathelicidins previously ([33], [42], [43]). Cathelicidin mature peptides were solubilized in DMSO and serially diluted in duplicate from 128-0.25μg/mL in a final volume of 100µL. For bacteria, cathelicidins were diluted in Mueller Hinton Broth (MHB) with or without 10% lysed horse blood, and with (MH II B) or without (MHB) calcium and magnesium cations. For fungi, cathelicidins were diluted in Roswell Park Memorial Institute medium (RPMI)-1640 MOPS. Ampicillin or tetracycline were included as a positive control for Gram-positive and -negative bacteria respectively, while amphotericin B was used for fungi. A media-only negative control and growth control (no cathelicidin) were also included on each plate. Bacteria were sub-cultured on Muller Hinton agar (MHA) or sheep blood agar (BA), and fungi on Sabouraud dextrose agar (SAB), 20–24 hours prior to the test. Colonies were suspended in saline, the concentration adjusted to a 0.5 McFarland standard, and then diluted in media to a concentration of 1.0 x 10^6 cells/mL. Then, 100μL was added to each well of the cathelicidin dilution plate, giving a final inoculum density of 5 x 10^5 CFU/mL and cathelicidin concentration of 64-0.125μg/mL. Colony counts were performed on MHA/BA/SAB to confirm inoculum density. All plates were incubated at 35°C for 20–24 hours, depending on the strain.
(§4) Colonies were counted and compared to the colony count of the starting inoculum.

[2] = system: Escherichia coli clinical isolate - animal; settings: clinical isolate - animal
Experimental: as §1, §2, §3, §4

[3] = system: Pseudomonas aeruginosa ATCC 27853
Experimental: as §1, §2, §3, §4

[4] = system: Pseudomonas aeruginosa clinical isolate - animal
Experimental: as §1, §2, §3, §4

[5] = system: Staphylococcus aureus ATCC 29213; settings: ATCC 29213; for MIC: read-out: MIC S. aureus ATCC
Experimental: as §1, §2, §3, §4

[6] = system: Staphylococcus aureus clinical isolate - animal; settings: clinical isolate - animal; for MIC: read-out: MIC S. aureus
Experimental: as §1, §2, §3, §4

[7] = ATCC 27853, read-out: MIC P. aeruginosa ATCC
[8] = clinical isolate - animal, read-out: MIC P. aeruginosa

| SMILES | MBC E. coli ATCC [1] | MIC E. coli ATCC [1] | MBC E. coli [2] | MIC [2] | MIC [3, 7] | MIC [4, 8] | MIC [5] | MIC [6] | MBC S. aureus ATCC [5] | MBC S. aureus [6] | MIC S. aureus [6] | other results |
| --- | --- | --- | --- | --- | --- | --- | --- | --- | --- | --- | --- | --- |
| CC[C@H](C)[C@H](NC(=O)[C@H](CCCNC(=N)N)NC(=O)[C@H](CCCNC(=N)N)NC(=O)[C@H](C)N)C(=O)N[C@@H](CCCNC(=N)N)C(=O)N[C@@H](CCCNC(=N)N)C(=O)N1CCC[C@H]1C(=O)N[C@@H](Cc1ccc(O)cc1)C(=O)N[C@@H](CC(C)C)C(=O)N1CCC[C@H]1C(=O)N[C@@H](CCCNC(=N)N)C(=O)N1CCC[C@H]1C(=O)N[C@@H](CCCNC(=N)N)C(=O)N1CCC[C@H]1C(=O)N[C@@H](CCCNC(=N)N)C(=O)N1CCC[C@H]1C(=O)N[C@@H](CC(N)=O)C(=O)N[C@@H](Cc1ccccc1)C(=O)N1CCC[C@H]1C(=O)N1CCC[C@H]1C(=O)N1CCC[C@H]1C(=O)N[C@@H](CCCNC(=N)N)C(=O)N1CCC[C@H]1C(=O)N[C@@H](CCCNC(=N)N)C(=O)N1CCC[C@H]1C(=O)NCC(=O)N[C@@H](CCCNC(=N)N)C(=O)N[C@@H](CO)C(=O)N[C@H](C(=O)O)C(C)C [AnstCath2] (H-ARRIRRPYLPRPRPRPNFPPPRPRPGRSV-OH) | 4.5 µM (≈ 15.8 µg/mL) | 4.5 µM (≈ 15.8 µg/mL) | 18.2 µM (≈ 64 µg/mL) | 9.1 µM (≈ 32 µg/mL) | >18.2 µM | >18.2 µM | >18.2 µM | >18.2 µM |  |  |  |  |
| CC[C@H](C)[C@H](NC(=O)[C@H](CC(C)C)NC(=O)[C@H](CC(N)=O)NC(=O)[C@@H](NC(=O)[C@H](Cc1ccccc1)NC(=O)CNC(=O)[C@@H](N)Cc1c[nH]c2ccccc12)[C@@H](C)O)C(=O)N[C@@H](Cc1ccc(O)cc1)C(=O)N[C@@H](CCC(N)=O)C(=O)N[C@@H](CCCCN)C(=O)N[C@@H](Cc1ccc(O)cc1)C(=O)N[C@@H](CCCCN)C(=O)N[C@@H](CC(C)C)C(=O)N[C@@H](CC(C)C)C(=O)N[C@@H](CCCNC(=N)N)C(=O)N[C@@H](CC(N)=O)C(=O)N[C@H](C(=O)N[C@@H](Cc1ccccc1)C(=O)N[C@@H](CCCNC(=N)N)C(=O)N[C@@H](CCCCN)C(=O)N[C@@H](CC(C)C)C(=O)N[C@@H](CCCNC(=N)N)C(=O)N[C@@H](CC(N)=O)C(=O)N[C@H](C(=O)N[C@@H](CO)C(=O)N[C@@H](CO)C(=O)NCC(=O)NCC(=O)N[C@@H](CCCNC(=N)N)C(=O)N[C@@H](CC(=O)O)C(=O)N[C@@H](CC(N)=O)C(=O)N[C@@H](CCCCN)C(=O)N[C@@H](CCCCN)C(=O)O)[C@@H](C)O)C(C)C [BepeCath4] (H-WGFTNLIYQKYKLLRNVFRKLRNTSSGGRDNKK-OH) | 3.9 µM (≈ 15.6 µg/mL) | 3.9 µM (≈ 15.6 µg/mL) | 7.9 µM (≈ 31.6 µg/mL) | 3.9 µM (≈ 15.6 µg/mL) | >15.9 µM | >15.9 µM | 7.9 µM (≈ 31.6 µg/mL) |  | 15.9 µM (≈ 63.6 µg/mL) | 7.9 µM (≈ 31.6 µg/mL) | 7.9 µM (≈ 31.6 µg/mL) |  |
| CC[C@H](C)[C@H](NC(=O)CNC(=O)[C@H](Cc1ccccc1)NC(=O)CNC(=O)[C@@H](NC(=O)[C@@H](NC(=O)[C@H](CCCNC(=N)N)NC(=O)[C@H](CCCNC(=N)N)NC(=O)[C@H](CCCNC(=N)N)NC(=O)[C@@H](NC(=O)[C@H](CO)NC(=O)[C@H](CC(N)=O)NC(=O)[C@H](CCCCN)NC(=O)[C@H](CC(C)C)NC(=O)[C@H](CCCCN)NC(=O)[C@H](CCSC)NC(=O)CNC(=O)[C@@H](NC(=O)[C@H](CCCCN)NC(=O)[C@H](CCCCN)NC(=O)[C@@H](NC(=O)[C@@H](NC(=O)[C@H](CC(=O)O)NC(=O)[C@H](Cc1c[nH]c2ccccc12)NC(=O)[C@H](CC(C)C)NC(=O)CNC(=O)[C@H](CCCNC(=N)N)NC(=O)[C@@H](N)CCCCN)[C@@H](C)O)C(C)C)[C@@H](C)O)[C@@H](C)CC)C(C)C)[C@@H](C)O)C(=O)NCC(=O)N[C@H](C(=O)N[C@@H](C)C(=O)N[C@H](C(=O)N[C@@H](CC(C)C)C(=O)N[C@H](C(=O)N1CCC[C@H]1C(=O)N[C@@H](CCCNC(=N)N)C(=O)O)C(C)C)[C@@H](C)CC)[C@@H](C)O [LahiCath5] (H-KRGLWDTVKKTGMKLKNSIRRRVTGFGIGTAILVPR-OH) | 3.9 µM (≈ 15.8 µg/mL) | 3.9 µM (≈ 15.8 µg/mL) | 7.8 µM (≈ 31.6 µg/mL) | 3.9 µM (≈ 15.8 µg/mL) | >15.7 µM | >15.7 µM | >15.7 µM | >15.7 µM |  |  |  |  |
| CC[C@H](C)[C@H](NC(=O)[C@H](CC(N)=O)NC(=O)[C@H](CCCNC(=N)N)NC(=O)[C@H](CC(C)C)NC(=O)[C@H](CCCCN)NC(=O)[C@H](CCCNC(=N)N)NC(=O)[C@H](Cc1ccccc1)NC(=O)[C@@H](NC(=O)[C@H](CC(N)=O)NC(=O)[C@H](CCC(N)=O)NC(=O)[C@H](CC(C)C)NC(=O)[C@@H](NC(=O)[C@H](CCCNC(=N)N)NC(=O)[C@H](Cc1ccc(O)cc1)NC(=O)[C@H](CCCCN)NC(=O)[C@H](CCC(N)=O)NC(=O)[C@H](Cc1ccc(O)cc1)NC(=O)[C@@H](NC(=O)[C@H](CC(C)C)NC(=O)[C@@H](N)CC(N)=O)[C@@H](C)CC)[C@@H](C)CC)C(C)C)C(=O)N[C@@H](Cc1ccccc1)C(=O)N[C@@H](CO)C(=O)N[C@@H](CCCNC(=N)N)C(=O)NCC(=O)N[C@@H](CCCNC(=N)N)C(=O)N[C@@H](CC(=O)O)C(=O)N[C@@H](CC(=O)O)C(=O)N[C@@H](CCCCN)C(=O)N[C@@H](CCC(=O)O)C(=O)O [MaruCath9] (H-NLIYQKYRILQNVFRKLRNIFSRGRDDKE-OH) |  |  |  | >17.3 µM | >17.3 µM | >17.3 µM |  |  | 8.6 µM (≈ 31.7 µg/mL) | 8.6 µM (≈ 31.7 µg/mL) | 8.6 µM (≈ 31.7 µg/mL) | MIC ([1]; read-out: MIC E. coli ATCC): >17.3 µM; MIC S. aureus ATCC [5]: 8.6 µM (≈ 31.7 µg/mL) |
| CN(C)[C@@H]1C(O)=C(C(N)=O)C(=O)[C@@]2(O)C(O)=C3C(=O)c4c(O)cccc4[C@@](C)(O)[C@H]3C[C@@H]12 [Tetracycline, reference compound] |  |  |  |  |  |  |  |  |  |  |  | MIC ([3]; Pseudomonas aeruginosa, ATCC27853, MHB without cations, 5 x 10^5 CFU/mL, 35°C 20–24 hours, duplicate, read-out: MIC P. aeruginosa ATCC): 32 µg/mL; MIC ([3]; Pseudomonas aeruginosa, ATCC27853, superscript value, cation-adjusted Mueller Hinton broth, read-out: MIC in the presence of cations P. aeruginosa ATCC): 32 µg/mL; MIC ([3]; Pseudomonas aeruginosa, ATCC27853, superscript value, cation-adjusted Mueller Hinton broth, µM equivalent, read-out: MIC in the presence of cations P. aeruginosa ATCC): 72 µM; MIC ([3]; Pseudomonas aeruginosa, ATCC27853, µM equivalent of Table 3, read-out: MIC P. aeruginosa ATCC): 72 µM; MIC ([4]; Pseudomonas aeruginosa, clinical isolate, MHB without cations, 5 x 10^5 CFU/mL, 35°C 20–24 hours, duplicate, read-out: MIC P. aeruginosa): 32 µg/mL; MIC ([4]; Pseudomonas aeruginosa, clinical isolate, superscript value, cation-adjusted Mueller Hinton broth, read-out: MIC in the presence of cations P. aeruginosa): 32 µg/mL; MIC ([4]; Pseudomonas aeruginosa, clinical isolate, superscript value, cation-adjusted Mueller Hinton broth, µM equivalent, read-out: MIC in the presence of cations P. aeruginosa): 72 µM; MIC ([4]; Pseudomonas aeruginosa, clinical isolate, µM equivalent of Table 3, read-out: MIC P. aeruginosa): 72 µM |
